Earlier results, collected in patent US20260216324A1, “QS-21 COMPOSITIONS AND PROCESSES FOR PRODUCING THE SAME AND USES THEREFOR” (priority 2022, published 2026).

What was measured:
[1] = U.S. Pat. No. 5,583,112 (Example 11), isomers derived from bark
[2] = U.S. Pat. No. 5,583,112 (Example 11), isomers derived from bark; remark: listed apart in the source
[3] = prior art; saponins purified from Quillaja saponaria bark extract

CC[C@H](C)[C@H](C[C@H](O)CC(=O)O[C@@H]1[C@H](O)[C@@H](O[C@@H]2O[C@@H](C)[C@H](O[C@@H]3OC[C@@H](O)[C@H](O[C@@H]4OC[C@@H](O)[C@H](O)[C@H]4O)[C@H]3O)[C@@H](O)[C@H]2O)[C@H](OC(=O)[C@]23CCC(C)(C)C[C@H]2C2=CC[C@@H]4[C@@]5(C)CC[C@H](O[C@@H]6O[C@H](C(=O)O)[C@@H](O)[C@H](O[C@@H]7OC[C@@H](O)[C@H](O)[C@H]7O)[C@H]6O[C@@H]6O[C@H](CO)[C@H](O)[C@H](O)[C@H]6O)[C@@](C)(C=O)[C@@H]5CC[C@@]4(C)[C@]2(C)C[C@H]3O)O[C@@H]1C)OC(=O)C[C@@H](O)C[C@H](O[C@@H]1O[C@@H](CO)[C@H](O)[C@H]1O)[C@@H](C)CC (single isomer, unassigned) [purified xylose isomer]
adjuvanticity compared to standard 65:35 QS-21 [1]: comparable in both adjuvanticity and toxicity to the standard 65:35 (apiose:xylose ratio) QS-21
toxicity compared to standard 65:35 QS-21 [2]: comparable in both adjuvanticity and toxicity to the standard 65:35 (apiose:xylose ratio) QS-21

QS-18
adjuvant activity [3]: adjuvant active

QS-17
adjuvant activity [3]: adjuvant active

CC[C@H](C)[C@H](C[C@H](O)CC(=O)O[C@@H]1[C@H](O)[C@@H](O[C@@H]2O[C@@H](C)[C@H](O[C@@H]3OC[C@@H](O)[C@H](O[C@@H]4OC[C@](O)(CO)[C@H]4O)[C@H]3O)[C@@H](O)[C@H]2O)[C@H](OC(=O)[C@]23CCC(C)(C)C[C@H]2C2=CC[C@@H]4[C@@]5(C)CC[C@H](O[C@@H]6O[C@H](C(=O)O)[C@@H](O)[C@H](O[C@@H]7OC[C@@H](O)[C@H](O)[C@H]7O)[C@H]6O[C@@H]6O[C@H](CO)[C@H](O)[C@H](O)[C@H]6O)[C@@](C)(C=O)[C@@H]5CC[C@@]4(C)[C@]2(C)C[C@H]3O)O[C@@H]1C)OC(=O)C[C@@H](O)C[C@H](O[C@@H]1O[C@@H](CO)[C@H](O)[C@H]1O)[C@@H](C)CC (single isomer, unassigned) [purified apiose isomer]
adjuvanticity compared to standard 65:35 QS-21 [1]: comparable in both adjuvanticity and toxicity to the standard 65:35 (apiose:xylose ratio) QS-21
toxicity compared to standard 65:35 QS-21 [2]: comparable in both adjuvanticity and toxicity to the standard 65:35 (apiose:xylose ratio) QS-21
